# Test results as given in patent publication US9669003B2, “Use of flavone and flavanone derivatives in preparation of sedative and hypnotic drugs” (priority 2012, dated 2017).
# Marks after values point to notes of the source that are not given here.
# System: Kunming mice
# Experiment: Influence on autonomic activity of normal mice (ZIL-2 mice autonomic activity meter, counts within 10 min)
# Type: in vivo
# Details: intragastric, 25 mg/kg, 1 h after administration, x ± s, n = 10
# Outline: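 Kunming mice (10 per group, half each sex) were dosed at 25, 50 or 100 mg/kg in 0.5% CMC-Na. Spontaneous activity counts over 10 min were recorded at 1 h, 2 h and 24 h post-dose. Groups were compared by ANOVA with Dunnett's test after Levene's check.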
row,Compound,Times of activities in 1 h after drug administration/10 min
1,CCCc1cc(-c2cc(=O)c3c(I)cc(CCS(=O)(=O)O)cc3o2)cc(C(N)=O)c1C(=O)O [Example 23],287.2 ± 45.4 /10 min
2,C=Cc1cc(C(N)=O)cc2oc(-c3ccc(N)c(C4CCSC4)c3)cc(=O)c12 (stereo not drawn) [Example 38],312.9 ± 40.6 /10 min

# Same assay, conditions: intragastric, 25 mg/kg, 2 h after administration, x ± s, n = 10
row,Compound,Times of activities in 2 h after drug administration/10 min
1,CCCc1cc(-c2cc(=O)c3c(I)cc(CCS(=O)(=O)O)cc3o2)cc(C(N)=O)c1C(=O)O [Example 23],263.2 ± 45.2 /10 min
2,C=Cc1cc(C(N)=O)cc2oc(-c3ccc(N)c(C4CCSC4)c3)cc(=O)c12 (stereo not drawn) [Example 38],296.2 ± 34.6 /10 min

# Same assay, conditions: intragastric, 25 mg/kg, 24 h after administration, x ± s, n = 10
row,Compound,Times of activities in 24 h after drug administration/10 min
1,CCCc1cc(-c2cc(=O)c3c(I)cc(CCS(=O)(=O)O)cc3o2)cc(C(N)=O)c1C(=O)O [Example 23],307.2 ± 82.1 /10 min
2,C=Cc1cc(C(N)=O)cc2oc(-c3ccc(N)c(C4CCSC4)c3)cc(=O)c12 (stereo not drawn) [Example 38],268.9 ± 82.8 /10 min

# Same assay, conditions: intragastric, 50 mg/kg, 1 h after administration, x ± s, n = 10
row,Compound,Times of activities in 1 h after drug administration/10 min
1,CCCc1cc(-c2cc(=O)c3c(I)cc(CCS(=O)(=O)O)cc3o2)cc(C(N)=O)c1C(=O)O [Example 23],229.9 ± 40.6 /10 min
2,C=Cc1cc(C(N)=O)cc2oc(-c3ccc(N)c(C4CCSC4)c3)cc(=O)c12 (stereo not drawn) [Example 38],259.2 ± 54.6 /10 min

# Same assay, conditions: intragastric, 50 mg/kg, 2 h after administration, x ± s, n = 10
row,Compound,Times of activities in 2 h after drug administration/10 min
1,CCCc1cc(-c2cc(=O)c3c(I)cc(CCS(=O)(=O)O)cc3o2)cc(C(N)=O)c1C(=O)O [Example 23],244.7 ± 47.6 /10 min
2,C=Cc1cc(C(N)=O)cc2oc(-c3ccc(N)c(C4CCSC4)c3)cc(=O)c12 (stereo not drawn) [Example 38],257.1 ± 57.2 /10 min

# Same assay, conditions: intragastric, 50 mg/kg, 24 h after administration, x ± s, n = 10
row,Compound,Times of activities in 24 h after drug administration/10 min
1,CCCc1cc(-c2cc(=O)c3c(I)cc(CCS(=O)(=O)O)cc3o2)cc(C(N)=O)c1C(=O)O [Example 23],300.7 ± 71.4 /10 min
2,C=Cc1cc(C(N)=O)cc2oc(-c3ccc(N)c(C4CCSC4)c3)cc(=O)c12 (stereo not drawn) [Example 38],279.7 ± 76.5 /10 min

# Same assay, conditions: intragastric, 100 mg/kg, 1 h after administration, x ± s, n = 10
row,Compound,Times of activities in 1 h after drug administration/10 min
1,CCCc1cc(-c2cc(=O)c3c(I)cc(CCS(=O)(=O)O)cc3o2)cc(C(N)=O)c1C(=O)O [Example 23],135.5 ± 35.7 /10 min
2,C=Cc1cc(C(N)=O)cc2oc(-c3ccc(N)c(C4CCSC4)c3)cc(=O)c12 (stereo not drawn) [Example 38],182.7 ± 41.3 /10 min

# Same assay, conditions: intragastric, 100 mg/kg, 2 h after administration, x ± s, n = 10
row,Compound,Times of activities in 2 h after drug administration/10 min
1,CCCc1cc(-c2cc(=O)c3c(I)cc(CCS(=O)(=O)O)cc3o2)cc(C(N)=O)c1C(=O)O [Example 23],181.0 ± 38.2 /10 min
2,C=Cc1cc(C(N)=O)cc2oc(-c3ccc(N)c(C4CCSC4)c3)cc(=O)c12 (stereo not drawn) [Example 38],165.4 ± 56.2 /10 min

# Same assay, conditions: intragastric, 100 mg/kg, 24 h after administration, x ± s, n = 10
row,Compound,Times of activities in 24 h after drug administration/10 min
1,CCCc1cc(-c2cc(=O)c3c(I)cc(CCS(=O)(=O)O)cc3o2)cc(C(N)=O)c1C(=O)O [Example 23],292.8 ± 90.5 /10 min
2,C=Cc1cc(C(N)=O)cc2oc(-c3ccc(N)c(C4CCSC4)c3)cc(=O)c12 (stereo not drawn) [Example 38],324.7 ± 80.9 /10 min

# System: Kunming mice
# Experiment: Influence on hypnosis effect with pentobarbital sodium doses below the threshold (25 mg/kg i.p.)
# Type: in vivo
# Details: test drug 25 mg/kg intragastric single dose, pentobarbital sodium 25 mg/kg i.p. 60 min later, sleep observed in 30 min, n = 10
# Outline: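 Kunming mice (10 per group, half female) given single oral doses of 25, 50 or 100 mg/kg in 0.5% CMC-Na; 60 min later pentobarbital sodium 25 mg/kg i.p. Sleep (righting reflex lost >1 min) scored within 30 min as percentage asleep, χ2 test.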
Compound,Number of sleeping animals,rate of sleeping (%)
CCCc1cc(-c2cc(=O)c3c(I)cc(CCS(=O)(=O)O)cc3o2)cc(C(N)=O)c1C(=O)O [Example 23],3,30%
C=Cc1cc(C(N)=O)cc2oc(-c3ccc(N)c(C4CCSC4)c3)cc(=O)c12 (stereo not drawn) [Example 38],6,60** %

# Same assay, conditions: test drug 50 mg/kg intragastric single dose, pentobarbital sodium 25 mg/kg i.p. 60 min later, sleep observed in 30 min, n = 10
Compound,Number of sleeping animals,rate of sleeping (%)
CCCc1cc(-c2cc(=O)c3c(I)cc(CCS(=O)(=O)O)cc3o2)cc(C(N)=O)c1C(=O)O [Example 23],4,40* %
C=Cc1cc(C(N)=O)cc2oc(-c3ccc(N)c(C4CCSC4)c3)cc(=O)c12 (stereo not drawn) [Example 38],8,80*** %

# Same assay, conditions: test drug 100 mg/kg intragastric single dose, pentobarbital sodium 25 mg/kg i.p. 60 min later, sleep observed in 30 min, n = 10
Compound,Number of sleeping animals,rate of sleeping (%)
CCCc1cc(-c2cc(=O)c3c(I)cc(CCS(=O)(=O)O)cc3o2)cc(C(N)=O)c1C(=O)O [Example 23],7,70** %
C=Cc1cc(C(N)=O)cc2oc(-c3ccc(N)c(C4CCSC4)c3)cc(=O)c12 (stereo not drawn) [Example 38],9,90*** %

# System: Kunming mice
# Experiment: Influence on hypnosis effect with pentobarbital sodium doses at the threshold (50 mg/kg i.p.)
# Type: in vivo
# Details: 25 mg/kg intragastric single dose, pentobarbital sodium 50 mg/kg i.p. 60 min later, x ± s, n = 10
# Outline: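 Kunming mice (10/group, half each sex) received compound in 0.5% CMC-Na intragastrically at 25, 50 or 100 mg/kg; 60 min later given 0.3% sodium pentobarbital 50 mg/kg i.p. Sleep latency and duration recorded by loss of righting reflex over 1 min; ANOVA and χ2 for sleep incidence.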
Compound,duration of sleep,time to sleep
CCCc1cc(-c2cc(=O)c3c(I)cc(CCS(=O)(=O)O)cc3o2)cc(C(N)=O)c1C(=O)O [Example 23],22.77 ± 25.89 min,5.35 ± 2.33 min
C=Cc1cc(C(N)=O)cc2oc(-c3ccc(N)c(C4CCSC4)c3)cc(=O)c12 (stereo not drawn) [Example 38],29.67 ± 21.25 min,4.92 ± 2.48 min

# Same assay, conditions: 50 mg/kg intragastric single dose, pentobarbital sodium 50 mg/kg i.p. 60 min later, x ± s, n = 10
Compound,duration of sleep,time to sleep
CCCc1cc(-c2cc(=O)c3c(I)cc(CCS(=O)(=O)O)cc3o2)cc(C(N)=O)c1C(=O)O [Example 23],28.59 ± 26.98 min,5.17 ± 2.26 min
C=Cc1cc(C(N)=O)cc2oc(-c3ccc(N)c(C4CCSC4)c3)cc(=O)c12 (stereo not drawn) [Example 38],36.68 ± 12.30 min,4.67 ± 1.55 min

# Same assay, conditions: 100 mg/kg intragastric single dose, pentobarbital sodium 50 mg/kg i.p. 60 min later, x ± s, n = 10
Compound,duration of sleep,time to sleep
CCCc1cc(-c2cc(=O)c3c(I)cc(CCS(=O)(=O)O)cc3o2)cc(C(N)=O)c1C(=O)O [Example 23],64.89 ± 45.78 min,3.14 ± 1.21 min
C=Cc1cc(C(N)=O)cc2oc(-c3ccc(N)c(C4CCSC4)c3)cc(=O)c12 (stereo not drawn) [Example 38],52.95 ± 20.05 min,3.98 ± 1.27 min
